In US9340590B2 (priority 2011, dated 2016):
Read-outs that look alike come from different tables or passages of the source. Positions of bridges follow the written chain, without caps; N, C: chain ends. Non-standard residues stand in square brackets, D forms with d. Residues, ends and D or L forms follow the SMILES beside them. 2Nal = N[C@@H](Cc1ccc2ccccc2c1)C(=O)O

Assays:
Experiment in all cases: cell-based
[1] = biological target: hNav1.3 (Homo sapiens, UniProt Q9NY46); details: IonWorks Quattro, read-out: IWQ Use Nav1.3
[2] = biological target: hNav1.5 (Homo sapiens, UniProt Q14524)
[3] = biological target: hNav1.7 (Homo sapiens, UniProt Q15858); assay type: cell-based; details: IonWorks Quattro
[4] = IonWorks Quattro, Use, read-out: IWQ Use Nav1.5
[5] = IonWorks Quattro, use-dependent, […], read-out: IWQ Use Nav1.5
[6] = use-dependent, […], read-out: IWQ Use Nav1.7

hNav1.7, sequence (Q15858 whole entry, looked up): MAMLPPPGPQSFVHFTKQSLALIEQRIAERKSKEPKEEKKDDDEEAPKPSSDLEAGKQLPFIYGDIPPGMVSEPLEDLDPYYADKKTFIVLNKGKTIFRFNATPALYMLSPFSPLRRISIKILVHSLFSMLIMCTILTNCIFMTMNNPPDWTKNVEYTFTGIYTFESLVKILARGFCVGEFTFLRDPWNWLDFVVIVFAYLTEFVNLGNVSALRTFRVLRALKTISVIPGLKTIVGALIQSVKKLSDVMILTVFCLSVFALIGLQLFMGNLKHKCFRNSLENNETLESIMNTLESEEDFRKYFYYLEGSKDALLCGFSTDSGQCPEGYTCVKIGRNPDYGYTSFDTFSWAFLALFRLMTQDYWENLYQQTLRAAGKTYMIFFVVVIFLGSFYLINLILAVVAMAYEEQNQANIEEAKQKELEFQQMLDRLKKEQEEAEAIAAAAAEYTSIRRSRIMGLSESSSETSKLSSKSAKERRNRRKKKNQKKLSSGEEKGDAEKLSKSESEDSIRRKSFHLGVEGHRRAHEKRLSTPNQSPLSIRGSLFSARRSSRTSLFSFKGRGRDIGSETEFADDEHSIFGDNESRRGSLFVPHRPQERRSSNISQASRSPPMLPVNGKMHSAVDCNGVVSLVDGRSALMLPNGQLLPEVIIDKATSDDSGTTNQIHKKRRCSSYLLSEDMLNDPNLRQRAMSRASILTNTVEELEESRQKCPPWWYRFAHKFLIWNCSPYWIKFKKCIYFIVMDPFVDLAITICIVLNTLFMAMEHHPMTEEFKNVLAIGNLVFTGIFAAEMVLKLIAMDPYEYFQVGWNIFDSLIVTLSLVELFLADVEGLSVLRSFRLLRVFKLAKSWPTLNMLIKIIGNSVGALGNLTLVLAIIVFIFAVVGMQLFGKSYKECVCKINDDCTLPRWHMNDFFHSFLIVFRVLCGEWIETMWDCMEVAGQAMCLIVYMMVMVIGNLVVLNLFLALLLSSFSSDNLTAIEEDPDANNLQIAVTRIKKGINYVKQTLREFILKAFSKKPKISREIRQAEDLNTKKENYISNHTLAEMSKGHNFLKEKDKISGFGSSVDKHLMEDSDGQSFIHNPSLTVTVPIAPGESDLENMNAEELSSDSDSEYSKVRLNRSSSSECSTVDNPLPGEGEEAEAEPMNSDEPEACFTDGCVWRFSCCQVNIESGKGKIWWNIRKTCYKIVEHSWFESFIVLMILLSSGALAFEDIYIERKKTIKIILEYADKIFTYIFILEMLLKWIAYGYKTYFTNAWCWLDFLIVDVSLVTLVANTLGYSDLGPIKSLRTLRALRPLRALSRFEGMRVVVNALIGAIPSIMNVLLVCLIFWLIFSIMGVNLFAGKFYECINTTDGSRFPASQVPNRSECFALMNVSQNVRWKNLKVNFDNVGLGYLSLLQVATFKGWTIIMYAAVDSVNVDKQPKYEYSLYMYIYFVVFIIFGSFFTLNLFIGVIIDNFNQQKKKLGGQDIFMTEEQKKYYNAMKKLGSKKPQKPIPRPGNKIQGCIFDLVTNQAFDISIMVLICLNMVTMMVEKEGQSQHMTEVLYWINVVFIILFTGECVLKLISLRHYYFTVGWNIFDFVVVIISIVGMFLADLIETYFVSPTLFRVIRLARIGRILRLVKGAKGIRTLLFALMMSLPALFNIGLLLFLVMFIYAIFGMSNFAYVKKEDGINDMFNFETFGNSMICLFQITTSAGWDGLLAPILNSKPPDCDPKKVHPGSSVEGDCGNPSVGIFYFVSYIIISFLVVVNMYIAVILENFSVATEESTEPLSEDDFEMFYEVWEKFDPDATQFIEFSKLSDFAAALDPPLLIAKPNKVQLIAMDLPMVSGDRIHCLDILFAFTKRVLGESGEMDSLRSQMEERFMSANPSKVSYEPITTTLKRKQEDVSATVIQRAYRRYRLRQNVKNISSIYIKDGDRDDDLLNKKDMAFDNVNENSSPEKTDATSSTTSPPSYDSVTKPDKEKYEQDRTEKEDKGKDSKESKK
hNav1.3, sequence (Q9NY46 whole entry, looked up): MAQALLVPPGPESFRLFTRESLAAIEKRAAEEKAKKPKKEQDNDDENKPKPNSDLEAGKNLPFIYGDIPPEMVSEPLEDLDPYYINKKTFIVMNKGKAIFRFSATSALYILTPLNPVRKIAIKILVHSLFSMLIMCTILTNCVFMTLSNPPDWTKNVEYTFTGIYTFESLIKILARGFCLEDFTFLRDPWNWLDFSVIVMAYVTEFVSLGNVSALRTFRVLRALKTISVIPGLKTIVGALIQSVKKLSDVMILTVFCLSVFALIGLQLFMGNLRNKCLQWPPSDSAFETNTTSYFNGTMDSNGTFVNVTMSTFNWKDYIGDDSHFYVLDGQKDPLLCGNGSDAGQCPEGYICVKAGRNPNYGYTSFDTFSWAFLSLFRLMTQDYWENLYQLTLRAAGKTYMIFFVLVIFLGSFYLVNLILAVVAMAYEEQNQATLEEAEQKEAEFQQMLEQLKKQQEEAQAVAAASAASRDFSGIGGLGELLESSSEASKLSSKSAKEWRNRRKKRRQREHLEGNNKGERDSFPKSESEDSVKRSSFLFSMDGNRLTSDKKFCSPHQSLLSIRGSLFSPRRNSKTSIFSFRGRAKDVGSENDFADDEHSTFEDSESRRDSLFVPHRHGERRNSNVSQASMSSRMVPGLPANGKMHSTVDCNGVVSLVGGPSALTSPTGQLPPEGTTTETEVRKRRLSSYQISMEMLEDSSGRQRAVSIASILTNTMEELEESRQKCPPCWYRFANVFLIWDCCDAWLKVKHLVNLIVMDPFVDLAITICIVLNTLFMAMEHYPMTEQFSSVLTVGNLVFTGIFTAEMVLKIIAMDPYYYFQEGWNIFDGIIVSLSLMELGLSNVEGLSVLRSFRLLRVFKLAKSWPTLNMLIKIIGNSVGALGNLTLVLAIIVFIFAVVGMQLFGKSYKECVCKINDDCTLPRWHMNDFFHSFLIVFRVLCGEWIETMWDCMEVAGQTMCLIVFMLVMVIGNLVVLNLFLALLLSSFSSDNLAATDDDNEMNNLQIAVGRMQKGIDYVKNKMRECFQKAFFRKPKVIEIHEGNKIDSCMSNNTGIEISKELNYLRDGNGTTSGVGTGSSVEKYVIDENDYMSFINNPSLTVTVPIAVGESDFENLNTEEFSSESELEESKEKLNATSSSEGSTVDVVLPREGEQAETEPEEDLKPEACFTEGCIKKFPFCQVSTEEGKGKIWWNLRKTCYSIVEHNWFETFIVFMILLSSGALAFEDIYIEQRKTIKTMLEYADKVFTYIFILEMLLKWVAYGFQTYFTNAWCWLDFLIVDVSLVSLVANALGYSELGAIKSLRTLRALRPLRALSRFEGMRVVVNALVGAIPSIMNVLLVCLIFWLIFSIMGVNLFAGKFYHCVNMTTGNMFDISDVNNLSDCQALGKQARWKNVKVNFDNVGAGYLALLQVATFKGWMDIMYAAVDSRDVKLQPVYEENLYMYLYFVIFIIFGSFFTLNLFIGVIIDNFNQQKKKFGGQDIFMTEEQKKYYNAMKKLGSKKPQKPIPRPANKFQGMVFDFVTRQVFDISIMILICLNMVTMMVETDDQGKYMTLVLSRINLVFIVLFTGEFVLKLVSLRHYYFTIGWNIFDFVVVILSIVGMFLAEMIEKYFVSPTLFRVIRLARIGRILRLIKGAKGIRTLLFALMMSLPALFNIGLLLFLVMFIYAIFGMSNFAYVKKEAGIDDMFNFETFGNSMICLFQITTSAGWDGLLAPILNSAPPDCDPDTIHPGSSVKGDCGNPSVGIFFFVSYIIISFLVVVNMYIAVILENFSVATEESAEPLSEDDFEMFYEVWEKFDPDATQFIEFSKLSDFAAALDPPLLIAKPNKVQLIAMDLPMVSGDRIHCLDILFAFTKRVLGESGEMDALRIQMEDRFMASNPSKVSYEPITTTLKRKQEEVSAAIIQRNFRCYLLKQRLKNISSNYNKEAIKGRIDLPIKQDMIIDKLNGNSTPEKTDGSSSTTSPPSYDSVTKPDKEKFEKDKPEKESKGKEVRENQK

Compound | IC50 ([1]; Use) [nM] | IC50 ([3]; Use, read-out: IWQ Use Nav1.7) [nM] | IC50 [2, 4] [µM] | IC50 ([1]; use-dependent, […]) [nM] | IC50 [2, 5] [µM] | further results
CC[C@H](C)[C@@H]1NC(=O)[C@@H]2CSSC[C@@H]3NC(=O)[C@H](C(C)C)NC(=O)[C@H](CC(C)C)NC(=O)[C@H](CC(N)=O)NC(=O)[C@@H]4CCCN4C(=O)[C@H](CCCNC(N)=O)NC(=O)[C@H](CSSC[C@H](NC(=O)[C@@H](N)CC(=O)O)C(=O)N[C@@H](CC(C)C)C(=O)NCC(=O)N[C@@H](Cc4ccccc4)C(=O)N[C@@H](CCSC)C(=O)N[C@@H](CCCNC(=N)N)C(=O)N[C@@H](CCCCN)C(=O)N2)NC(=O)[C@H](CSSC[C@@H](C(=O)N[C@@H](CCCCN)C(=O)N[C@@H](Cc2ccc(O)cc2)C(=O)N[C@H](C(=O)N[C@@H](Cc2ccccc2)C(N)=O)C(C)C)NC(=O)[C@H](Cc2c[nH]c4ccccc24)NC(=O)[C@H](CCCCN)NC(=O)[C@H](Cc2cnc[nH]2)NC(=O)[C@H]([C@@H](C)O)NC(=O)[C@H](CCCNC(=N)N)NC(=O)[C@H](CO)NC3=O)NC(=O)[C@H](CCCCN)NC(=O)[C@H](CC(=O)O)NC(=O)[C@H](CC(N)=O)NC(=O)[C@H](CC(=O)O)NC(=O)[C@@H]2CCCN2C1=O [compound 116] | 230 | 170 | – | – | – | IC50 ([2]; IWQ Use Nav1.5 (μM)): 11 µM
CC[C@H](C)[C@@H]1NC(=O)[C@@H]2CSSC[C@@H]3NC(=O)[C@H](C(C)C)NC(=O)[C@H](CC(C)C)NC(=O)[C@H](CC(N)=O)NC(=O)[C@@H]4CCCN4C(=O)[C@H](CCCNC(=N)N)NC(=O)[C@H](CSSC[C@H](NC(=O)[C@@H](N)CC(=O)O)C(=O)N[C@@H](CC(C)C)C(=O)NCC(=O)N[C@@H](Cc4ccccc4)C(=O)N[C@@H](CCSC)C(=O)N[C@@H](CCCNC(=N)N)C(=O)N[C@@H](CCCCN)C(=O)N2)NC(=O)[C@H](CSSC[C@@H](C(=O)N[C@@H](CCCCN)C(=O)N[C@@H](Cc2ccc(O)cc2)C(=O)N[C@H](C(=O)N[C@@H](Cc2ccccc2)C(N)=O)C(C)C)NC(=O)[C@H](Cc2c[nH]c4ccccc24)NC(=O)[C@H](CCCCN)NC(=O)[C@H](Cc2c[nH]cn2)NC(=O)[C@H]([C@@H](C)O)NC(=O)[C@H](CCCNC(N)=O)NC(=O)[C@H](CO)NC3=O)NC(=O)[C@H](CCCCN)NC(=O)[C@H](CC(=O)O)NC(=O)[C@H](CC(N)=O)NC(=O)[C@H](CC(=O)O)NC(=O)[C@@H]2CCCN2C1=O [compound 117] | 510 | 320 | 8.87 | – | – | –
CC[C@H](C)[C@@H]1NC(=O)[C@@H]2CSSC[C@@H]3NC(=O)[C@H](C(C)C)NC(=O)[C@H](CCSC)NC(=O)[C@H](CC(N)=O)NC(=O)[C@@H]4CCCN4C(=O)[C@H](CCCNC(=N)N)NC(=O)[C@H](CSSC[C@H](NC(=O)[C@@H](N)CC(=O)O)C(=O)N[C@@H](CC(C)C)C(=O)NCC(=O)N[C@@H](Cc4ccccc4)C(=O)N[C@@H](CCSC)C(=O)N[C@@H](CCCNC(=N)N)C(=O)N[C@@H](CCCCN)C(=O)N2)NC(=O)[C@H](CSSC[C@@H](C(=O)N[C@@H](CCCCN)C(=O)N[C@@H](Cc2ccc(O)cc2)C(=O)N[C@H](C(=O)N[C@@H](Cc2ccccc2)C(N)=O)C(C)C)NC(=O)[C@H](Cc2c[nH]c4ccccc24)NC(=O)[C@H](CCCCN)NC(=O)[C@H](Cc2c[nH]cn2)NC(=O)[C@H]([C@@H](C)O)NC(=O)[C@H](CCCNC(=N)N)NC(=O)[C@H](CO)NC3=O)NC(=O)[C@H](CCCCN)NC(=O)[C@H](CC(=O)O)NC(=O)[C@H](CC(N)=O)NC(=O)[C@H](CC(=O)O)NC(=O)[C@@H]2CCCN2C1=O [compound 120] (H-DCLGFMRKCIPDNDKCCRPNMVCSRTHKWCKYVF-NH2; disulfide 2-17, 9-23, 16-30) | 90 | 140 | 9.54 | – | – | –
CC[C@H](C)[C@@H]1NC(=O)[C@@H]2CSSC[C@@H]3NC(=O)[C@H](C(C)C)NC(=O)[C@H](CC(C)C)NC(=O)[C@H](CC(N)=O)NC(=O)[C@@H]4CCCN4C(=O)[C@H](CCCNC(=N)N)NC(=O)[C@H](CSSC[C@H](NC(=O)[C@@H](N)CC(=O)O)C(=O)N[C@@H](CC(C)C)C(=O)NCC(=O)N[C@@H](Cc4ccccc4)C(=O)N[C@@H](CCSC)C(=O)N[C@@H](CCCNC(=N)N)C(=O)N[C@@H](CCCCN)C(=O)N2)NC(=O)[C@H](CSSC[C@@H](C(=O)N[C@@H](CCCCN)C(=O)N[C@@H](Cc2ccc(O)cc2)C(=O)N[C@H](C(=O)N[C@@H](CC(C)C)C(N)=O)C(C)C)NC(=O)[C@H](Cc2c[nH]c4ccccc24)NC(=O)[C@H](CCCCN)NC(=O)[C@H](Cc2c[nH]cn2)NC(=O)[C@H]([C@@H](C)O)NC(=O)[C@H](CCCNC(=N)N)NC(=O)[C@H](CO)NC3=O)NC(=O)[C@H](CCCCN)NC(=O)[C@H](CC(=O)O)NC(=O)[C@H](CC(N)=O)NC(=O)[C@H](CC(=O)O)NC(=O)[C@@H]2CCCN2C1=O [compound 122] (H-DCLGFMRKCIPDNDKCCRPNLVCSRTHKWCKYVL-NH2; disulfide 2-17, 9-23, 16-30) | – | – | – | 130 | 8.46 | IC50 [3, 6]: 240 nM
CC[C@H](C)[C@@H]1NC(=O)[C@@H]2CSSC[C@@H]3NC(=O)[C@H](C(C)C)NC(=O)[C@H](CC(C)C)NC(=O)[C@H](CC(N)=O)NC(=O)CNC(=O)[C@H](CCCNC(=N)N)NC(=O)[C@H](CSSC[C@H](NC(=O)[C@@H](N)CC(=O)O)C(=O)N[C@@H](CC(C)C)C(=O)NCC(=O)N[C@@H](Cc4ccccc4)C(=O)N[C@@H](CCSC)C(=O)N[C@@H](CCCNC(=N)N)C(=O)N[C@@H](CCCCN)C(=O)N2)NC(=O)[C@H](CSSC[C@@H](C(=O)N[C@@H](CCCCN)C(=O)N[C@@H](Cc2ccc(O)cc2)C(=O)N[C@H](C(=O)N[C@@H](Cc2ccccc2)C(N)=O)C(C)C)NC(=O)[C@H](Cc2c[nH]c4ccccc24)NC(=O)[C@H](CCCCN)NC(=O)[C@H](Cc2c[nH]cn2)NC(=O)[C@H]([C@@H](C)O)NC(=O)[C@H](CCCNC(=N)N)NC(=O)[C@H](CO)NC3=O)NC(=O)[C@H](CCCCN)NC(=O)[C@H](CC(=O)O)NC(=O)[C@H](CC(N)=O)NC(=O)[C@H](CC(=O)O)NC(=O)[C@@H]2CCCN2C1=O [compound 126] (H-DCLGFMRKCIPDNDKCCRGNLVCSRTHKWCKYVF-NH2; disulfide 2-17, 9-23, 16-30) | 110 | 100 | 11.9 | – | – | –
CC[C@H](C)[C@@H]1NC(=O)[C@@H]2CSSC[C@@H]3NC(=O)[C@H](C(C)C)NC(=O)[C@H](CC(C)C)NC(=O)[C@H](CC(N)=O)NC(=O)[C@@H]4CCCN4C(=O)[C@H](CCCNC(=N)N)NC(=O)[C@H](CSSC[C@H](NC(=O)[C@@H](N)CC(=O)O)C(=O)N[C@@H](CC(C)C)C(=O)NCC(=O)N[C@@H](Cc4ccccc4)C(=O)N[C@@H](CCSC)C(=O)N[C@@H](CCCNC(=N)N)C(=O)N[C@@H](CCCCN)C(=O)N2)NC(=O)[C@H](CSSC[C@@H](C(=O)N[C@@H](CCCCN)C(=O)N[C@@H](CCCCN)C(=O)N[C@H](C(=O)N[C@@H](Cc2ccccc2)C(=O)N[C@@H](Cc2c[nH]c4ccccc24)C(N)=O)C(C)C)NC(=O)[C@H](Cc2c[nH]c4ccccc24)NC(=O)[C@H](CCCCN)NC(=O)[C@H](Cc2c[nH]cn2)NC(=O)[C@H]([C@@H](C)O)NC(=O)[C@H](CCCNC(=N)N)NC(=O)[C@H](CO)NC3=O)NC(=O)[C@H](CCCCN)NC(=O)[C@H](CC(=O)O)NC(=O)[C@H](CC(N)=O)NC(=O)[C@H](CC(=O)O)NC(=O)[C@@H]2CCCN2C1=O [compound 127] (H-DCLGFMRKCIPDNDKCCRPNLVCSRTHKWCKKVFW-NH2; disulfide 2-17, 9-23, 16-30) | – | – | – | – | – | IC50 ([1]; use-dependent block, hNav1.3): 700 nM; IC50 ([2]; IonWorks Quattro, use-dependent block, hNav1.5, read-out: IWQ Use Nav1.5): 18.9 µM; IC50 ([3]; use-dependent block, hNav1.7, read-out: IWQ Use Nav1.7): 730 nM
CC[C@H](C)[C@@H]1NC(=O)[C@@H]2CSSC[C@@H]3NC(=O)[C@H](C(C)C)NC(=O)[C@H](CC(C)C)NC(=O)[C@H](CC(N)=O)NC(=O)[C@@H]4CCCN4C(=O)[C@H](CCCNC(=N)N)NC(=O)[C@H](CSSC[C@H](NC(=O)[C@@H](N)CC(=O)O)C(=O)N[C@@H](CC(C)C)C(=O)NCC(=O)N[C@@H](Cc4ccccc4)C(=O)N[C@@H](CCSC)C(=O)N[C@@H](CCCNC(=N)N)C(=O)N[C@@H](CCCCN)C(=O)N2)NC(=O)[C@H](CSSC[C@@H](C(=O)N[C@@H](CCCCN)C(=O)N[C@@H](Cc2ccc(O)cc2)C(=O)N[C@H](C(=O)N[C@@H](Cc2ccc4ccccc4c2)C(N)=O)C(C)C)NC(=O)[C@H](Cc2c[nH]c4ccccc24)NC(=O)[C@H](CCCCN)NC(=O)[C@H](Cc2c[nH]cn2)NC(=O)[C@H]([C@@H](C)O)NC(=O)[C@H](CCCNC(=N)N)NC(=O)[C@H](CO)NC3=O)NC(=O)[C@H](CCCCN)NC(=O)[C@H](CC(=O)O)NC(=O)[C@H](CC(N)=O)NC(=O)[C@H](CC(=O)O)NC(=O)[C@@H]2CCCN2C1=O [compound 130] (H-DCLGFMRKCIPDNDKCCRPNLVCSRTHKWCKYV[2Nal]-NH2; disulfide 2-17, 9-23, 16-30) | – | – | – | 20 | 3.59 | IC50 [3, 6]: 40 nM
CC[C@H](C)[C@@H]1NC(=O)[C@@H]2CSSC[C@@H]3NC(=O)[C@H](C(C)C)NC(=O)[C@H](CC(C)C)NC(=O)[C@H](CC(N)=O)NC(=O)[C@@H]4CCCN4C(=O)[C@H](CCCNC(=N)N)NC(=O)[C@H](CSSC[C@H](NC(=O)[C@@H](N)CC(=O)O)C(=O)N[C@@H](CC(C)C)C(=O)NCC(=O)N[C@@H](Cc4ccccc4)C(=O)N[C@@H](CCSC)C(=O)N[C@@H](CCCNC(=N)N)C(=O)N[C@@H](CCCCN)C(=O)N2)NC(=O)[C@H](CSSC[C@@H](C(=O)N[C@@H](CCCCN)C(=O)N[C@@H](Cc2ccc(O)cc2)C(=O)N[C@H](C(=O)N[C@@H](Cc2ccccc2)C(=O)N[C@@H](Cc2ccc4ccccc4c2)C(N)=O)C(C)C)NC(=O)[C@H](Cc2c[nH]c4ccccc24)NC(=O)[C@H](CCCCN)NC(=O)[C@H](Cc2c[nH]cn2)NC(=O)[C@H]([C@@H](C)O)NC(=O)[C@H](CCCNC(=N)N)NC(=O)[C@H](CO)NC3=O)NC(=O)[C@H](CCCCN)NC(=O)[C@H](CC(=O)O)NC(=O)[C@H](CC(N)=O)NC(=O)[C@H](CC(=O)O)NC(=O)[C@@H]2CCCN2C1=O [compound 131] | – | – | – | 20 | 2.55 | IC50 ([3]; use-dependent, […], read-out: IWQ Use Nav1.7 (μm)): 50 nM
